Results: patent US12415799B2, “Indazole-fused cyclic compound” (Zhejiang Yangli Pharmaceutical Technology Co., Ltd., priority 2020, dated 2025)
pIC50: −log10 of the molar value.

Columns and labels:
[1] = In vivo pharmacokinetic study in rats; parameters: species or system male SD rats
Excerpt: Experimental purposes: To test the drug concentration in plasma of rats at different times after intravenous and intragastric administration of the test compound by LC/MS/MS using male fasted SD rats as the experimental animals. To study the pharmacokinetics of the test compound in rats in vivo and evaluate their pharmacokinetic characteristics.
Experimental animals: 4 healthy male SD rats were divided into 2 groups according to the principle of similar body weight, with 2 mice in each group in IV group and 2 mice in each group in PO group. Animals were purchased from Beijing Vital River Laboratory Animal Co., Ltd.
IV group: Appropriate number of samples were weighed and prepared into 0.5 mg/mL solution respectively, and the mixture was stirred and ultrasonicated to reach a clear state, and the solvent was 15% HP-β-CD.
PO group: Appropriate amount of the solution prepared in IV group was diluted to 0.4 mg/mL with 15% HP-β-CD.
Administration: After fasting overnight, IV group was administered intravenously, and the dosage of the test compound was 1 mg/kg; PO group was administered intragastrically, and the dosage of the test compound was 2 mg/kg.
After the male rats in the intravenous injection group were given the test compound respectively, 200 μL of blood was collected from the jugular vein at 0.0833, 0.25, 0.5, 1, 2, 4, 8, and 24 hours, and placed in a commercialized anticoagulant tube added with EDTA-K2 in advance. After intragastric administration of the test compound, 200 μL of blood was collected from the jugular vein at 0.25, 0.5, 1, 2, 4, 8, 12 and 24 hours, respectively, and placed in a commercialized anticoagulant tube added with EDTA-K2 in advance. After centrifugation (3,200 g, 4° C., 10 minutes), the plasma was collected, transferred to a pre-cooled centrifuge tube, quickly frozen in dry ice, and stored in a refrigerator at −60° C. or lower, until LC-MS/MS analysis. Animals were allowed to eat 4 hours after administration. LC/MS/MS method was used to determine the content of the test compound in the plasma of rats after intravenous and intragastric administration. The linear range of the method was 2.00 to 2000 nM.

ERα = ERα (Homo sapiens (Human), UniProt P03372); assay: Degradation experiment of MCF-7 ERα (ELISA); assay type: cell-based; conditions: MCF-7 cell line, 4 hours incubation, total ERα ELISA; read-out: IC50 value of promoting ERα degradation
Chain of ERα (P03372 whole entry): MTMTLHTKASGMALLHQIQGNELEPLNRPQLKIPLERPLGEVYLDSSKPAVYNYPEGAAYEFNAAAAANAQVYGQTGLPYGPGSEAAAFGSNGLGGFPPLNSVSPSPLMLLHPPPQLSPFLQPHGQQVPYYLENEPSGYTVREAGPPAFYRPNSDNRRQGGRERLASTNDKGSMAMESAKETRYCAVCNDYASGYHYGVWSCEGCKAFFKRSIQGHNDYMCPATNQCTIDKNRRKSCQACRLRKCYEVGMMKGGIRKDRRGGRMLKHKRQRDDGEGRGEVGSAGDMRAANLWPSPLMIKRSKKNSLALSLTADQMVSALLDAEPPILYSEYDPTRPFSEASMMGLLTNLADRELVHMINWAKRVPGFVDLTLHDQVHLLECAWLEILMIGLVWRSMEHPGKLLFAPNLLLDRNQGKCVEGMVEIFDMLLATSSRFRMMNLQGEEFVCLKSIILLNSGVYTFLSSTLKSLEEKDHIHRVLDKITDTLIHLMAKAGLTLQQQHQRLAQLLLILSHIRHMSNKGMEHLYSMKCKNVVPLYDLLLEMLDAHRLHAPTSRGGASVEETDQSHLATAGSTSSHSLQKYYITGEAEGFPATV
Excerpt: (2) Degradation Experiment of MCF-7 ERα Experimental Materials:
Phenol red-free MEM culture medium was purchased from Wisent, fetal bovine serum was purchased from Biosera, and Human Total ERα/NR3A1 ELISA kit was purchased from R&D. MCF-7 cell line was purchased from Cell Bank of Type Culture Collection of Chinese Academy of Sciences. Nivo5 multi-label analyzer (PerkinElmer).
MCF-7 cells were resuspended in culture medium (phenol red-free MEM+5% charcoal/dextran-treated fetal bovine serum+1% penicillin-streptomycin double antibody solution), and seeded in a clear 96-well cell culture plate with 80 μL per well containing 20,000 cells, and the cell culture plate was incubated overnight in a carbon dioxide incubator;
ELISA plate was coated with strips, human total estrogen receptor a capture antibody was diluted with 1×PBS with a final concentration of 1 μg/mL, and 100 μL of mixture was added to each well, and incubated overnight at 25° C.
Cell administration: The test compound was diluted to the 8th concentration with a multi-channel pipette, and the compound concentration was 20 μM and 4 μM, and then diluted to the 8th concentration of 0.256 nM in turn, and a double-duplicate experiment was set-up. 78 μL of culture medium was added to the middle plate, then 2 μL of gradient dilution compound per well was transferred to the middle plate according to the corresponding position, and 20 μL of the mixture per well was mixed evenly and transferred to the cell plate, and the final concentration of DMSO was 0.5%, and the mixture was incubated at 37° C. for 4 hours;
preparation of standard curve solution: 110 ng/mL of standard curve storage solution was 6-fold diluted with buffer (1×PBS containing 1 mM EDTA, 0.5% Triton X-100, pH 7.2 to 7.4) to obtain a solution with a concentration of 18.3 ng/mL, and then 91.5-fold diluted with buffer (1×PBS containing 1 mM EDTA, 0.5% Triton X-100, 1 M urea, pH 7.2 to 7.4) to obtain a solution with a concentration of 0.2 ng/mL, and 8-point gradient dilution was performed using buffer (1×PBS containing 1 mM EDTA, 0.5% Triton X-100, 1 M urea, pH 7.2 to 7.4) with a final concentration of […].
1×PBS was pre-cooled, and after the incubation of the compound, the supernatant was removed, and then the plate was washed with 250 μL of pre-cooled 1×PBS per well, then 30 µL of cell lysate per well (1×PBS containing 1 mM EDTA, 0.5% Triton X-100, 6 M urea, 1 mM active sodium orthovanadate, 2.5 mM sodium pyrophosphate, lx protease inhibitor, pH 7.2 to 7.4) was added, and lysed on ice for 15 minutes;
after cell was lysed in the cell plate, the cell lysate was 6-fold diluted with 150 μL of buffer (1×PBS containing 1 mM EDTA, 0.5% Triton X-100, pH 7.2 to 7.4) per well, and the mixture was mixed evenly by blowing with a multi-channel pipette, and 100 μL of solution per well was transferred to the ELISA plate;
the human total estrogen receptor a detection antibody stock solution (14.4 μg/mL) was 36-fold diluted with buffer (1×PBS containing 1% bovine serum albumin), and the final concentration of the detection antibody was 400 ng/mL, and 100 μL of the solution per well was transferred to the ELISA plate and incubated at 25° C. for 2 hours;
Data analysis: A, B, C and D in the four-parameter equation y=(A−D)/[1+(x/C)^B]+D were calculated according to the original data of the standard curve, wherein, y was the original OD450 value, x was the concentration of the corresponding point of the standard curve. According to the four-parameter equation and the OD450 reading of the original data of the sample, the concentration of ERα at the corresponding point was calculated. The equation (Sample−Min)/(Max−Min)×100% was used to convert the original data into inhibition rate, and the IC50 value could be obtained by curve fitting with four parameters (obtained by “log (inhibitor) vs. response—variable slope” mode in GraphPad Prism).
Max wells: Positive control wells reading at 100 nM Fulvestrant-treated cell wells […]

[2] = male, SD, rat, plasma, iv, i.v. 1 mg/kg
[3] = male, SD, rat, plasma, po, p.o. 2 mg/kg

AUC(0-t) [1, 2]	clearance [1, 2]	half-life [1, 2]	Vd ([1]; male, SD, rat, plasma, iv, i.v. 1 mg/kg, read-out: Vdss)	bioavailability ([1]; male, SD, rat, plasma, oral, p.o. 2 mg/kg vs i.v. 1 mg/kg)	AUC(0-t) [1, 3]	Cmax [1, 3]	half-life [1, 3]	DC50 (ERα)	AUC0-last ([1]; i.v. 1 mg/kg)	Cl ([1]; i.v. 1 mg/kg)	T1/2 ([1]; i.v. 1 mg/kg)	Vdss ([1]; i.v. 1 mg/kg)	AUC0-last ([1]; p.o. 2 mg/kg)	Cmax ([1]; p.o. 2 mg/kg)	T1/2 ([1]; p.o. 2 mg/kg)	F % ([1]; p.o. 2 mg/kg vs i.v. 1 mg/kg)	pIC50 (ERα)	SMILES
0.493 µM·h	54.6 mL/min/kg	3.62 h	15.9 L/kg	24.3%	0.24 µM·h	39.3 nM	5.8 h	0.2 nM										FCCCN1CC(Nc2ccc(C3=C(CC(F)(F)F)CCCc4c3ccc3[nH]nc(F)c43)nc2)C1 [Compound 2]
									0.518 µM·h	53.1 mL/min/kg	3.19 h	14.5 L/kg	0.601 µM·h	66.9 nM	8.96 h	58.1%	9.64	FCCCN1CC[C@H](Nc2cnc(C3=C(CC(F)(F)F)CCCc4c3ccc3[nH]nc(F)c43)cn2)C1 [Compound 11A]
